Assays:
mock-infected MT4 cells = assay: in vitro
Experimental: (§1) HIV- or mock-infected MT4 cells were incubated for five days in the presence of various concentrations of the inhibitor. […] Cell viability is measured by measuring the concentration of MTT, a yellow, water soluble tetrazolium dye that is converted to a purple, water insoluble formazan in the mitochondria of living cells only. Upon solubilization of the resulting formazan crystals with isopropanol, the absorbance of the solution is monitored at 540 nm. The values correlate directly to the number of living cells remaining in the culture at the completion of the five day incubation. The inhibitory activity of the compound was monitored on the virus-infected cells and was expressed as EC50 and EC90. These values represent the amount of the compound required to protect 50% and 90%, respectively, of the cells from the cytopathogenic effect of the virus. The toxicity of the compound was measured on the mock-infected cells and was expressed as CC50, which represents the concentration of compound required to inhibit the growth of the cells by 50%. The selectivity index (SI) (ratio CC50/EC50) is an indication of the selectivity of the anti-HIV activity of the inhibitor. Wherever results are reported as e.g. pEC50 or pCC50 values, the result is expressed as the negative logarithm of the result expressed as EC50 or CC50 respectively.
(§2) As a measure of the broad spectrum activity of the present compounds, the fold resistance (FR), defined as FR=EC50(mutant strain)/EC50(HIV-1 strain LAI), was determined.

[1] = tested on: HIV strain B (clinically isolated, protease mutations); format: cell-based; details: FR=EC50(mutant strain B)/EC50(HIV-1 strain LAI)
Experimental: as §1, §2

[2] = tested on: HIV strain E (clinically isolated, protease mutations); format: cell-based; details: FR=EC50(mutant strain E)/EC50(HIV-1 strain LAI)
Experimental: as §1, §2

[3] = tested on: HIV strain C (clinically isolated, protease mutations); format: cell-based; details: FR=EC50(mutant strain C)/EC50(HIV-1 strain LAI)
Experimental: as §1, §2

[4] = tested on: HIV strain F (clinically isolated, protease mutations); format: cell-based; details: FR=EC50(mutant strain F)/EC50(HIV-1 strain LAI)
Experimental: as §1, §2

[5] = tested on: HIV strain D (clinically isolated, protease mutations); format: cell-based; details: FR=EC50(mutant strain D)/EC50(HIV-1 strain LAI)
Experimental: as §1, §2

[6] = tested on: HIV strain A (clinically isolated, protease mutations); format: cell-based; details: FR=EC50(mutant strain A)/EC50(HIV-1 strain LAI)
Experimental: as §1, §2

HIV-1 LAI = assay: Protein binding analyses: anti-HIV activity in presence of serum proteins; format: cell-based; details: MT4 cells
Experimental: Human serum proteins like albumin (HSA) or α-1 acid glycoprotein (AAG) are known to bind many drugs, resulting in a possible decrease in the effectiveness of those compounds. In order to determine whether the present compounds would be adversely affected by this binding, the anti-HIV activity of the compounds was measured in the presence of human serum, thus evaluating the effect of the binding of the protease inhibitors to those proteins.
MT4 cells are infected with HIV-1 LAI at a multiplicity of infection (MOI) of 0.001-0.01 CCID50 (50% cell culture infective dose per cell, CCID50). After 1 h incubation, cells are washed and plated into a 96 well plate containing serial dilutions of the compound in the presence of 10% FCS (foetal calf serum), 10% FCS+1 mg/ml AAG (α1-acid glycoprotein), 10% FCS+45 mg/ml HSA (human serum albumin) or 50% human serum (HS). After 5 or 6 days incubation, the EC50 (50% effective concentration in cell-based assays) is calculated by determining the cell viability or by quantifying the level of HIV replication. Cell viability is measured using the assay described above. Into a 96 well plate containing serial dilutions of the compound in the presence of 10% FCS or 10% FCS+1 mg/ml AAG, HIV (wild type or resistant strain) and MT4 cells are added to a final concentration of 200-250 CCID50/well and 30,000 cells/well, respectively. After 5 days of incubation (37° C., 5% CO2), the viability of the cells is determined by the tetrazolium colorimetric MTT (3-[4,5-Dimethylthiazol-2-yl]-2,5-diphenyltetrazolium bromide) method (Pauwels et al. J Virol. Methods 1988, 20, 309-321).

in vitro = details: human
Experimental: as §1, §2

[7] = in vivo, ip, 20 mg/kg
Experimental: The compounds are formulated as a 20 mg/ml solution or suspension in DMSO, PEG400 or cyclodextin 40% in water. For most experiments in the rat (male and female rats), three dosing groups are formed: 1/single intraperitoneal (IP) dose at 20 mg/kg using the DMSO formulation; 2/single oral dose at 20 mg/kg using the PEG400 formulation and 3/single oral dose at 20 mg/kg using the cyclodextrin formulation. Blood is sampled at regular time intervals after dosing and drug concentrations in the serum are determined using a LC-MS bioanalytical method. Serum concentrations are expressed in […] after normalization to 10 mg/kg. Serum concentration at 30 minutes (30′) and at 3 hours (180′) can be determined as these values reflect the extent of absorption (30′) and the speed of elimination (180′). The rat serum concentration at 30 min and 180 min following IP administration of 20 mg/kg of compound 4 are 1098 ng/ml and 553 ng/ml respectively.

Row | Structure (SMILES) | Tox (pCC50) (mock-infected MT4 cells) | B (FR) fold resistance [1] | E (FR) fold resistance [2] | C (FR) fold resistance [3] | F (FR) fold resistance [4] | D (FR) fold resistance [5] | A (FR) fold resistance [6] | Ratio of the EC50 compared to FCS (10%) (HIV-1 LAI; AAG 1 mg/ml (10% FCS+AAG)) | Ratio of the EC50 compared to FCS (10%) (HIV-1 LAI; FCS (10%)) | Ratio of the EC50 compared to FCS (10%) (HIV-1 LAI; HS 50% (human serum)) | Ratio of the EC50 compared to FCS (10%) (HIV-1 LAI; HSA 45 mg/ml (10% FCS+HSA)) | CC50 at 5 days (in vitro) [µM] | rat serum concentration at 30 min [7] [ng/mL] | rat serum concentration at 180 min [7] [ng/mL]
1 | CC(C)CN(C[C@@H](O)[C@H](Cc1ccccc1)NC(=O)OCc1cncs1)S(=O)(=O)c1ccc2nc(NC(=O)c3ccccn3)oc2c1 [Compound 16] | 4.25 | 0.72 | 1.1 | 0.69 | 17 | 3.3 | 3.5 |  |  |  |  |  |  | 
2 | CC(C)CN(C[C@@H](O)[C@H](Cc1ccccc1)NC(=O)OCc1cncs1)S(=O)(=O)c1ccc2nc(NC(=O)C3CCC(=O)N3)oc2c1 (stereo partly shown) [Compound 13] | <4 | 0.75 | 0.91 | 0.64 | 5.2 | 0.91 | 2.3 |  |  |  |  |  |  | 
3 | CC(C)CN(C[C@@H](O)[C@H](Cc1ccccc1)NC(=O)OCc1cncs1)S(=O)(=O)c1ccc2nc(NC(=O)c3cccnc3)oc2c1 [Compound 18] | 4.24 | 0.85 | 2.6 | 1.5 | 13 | 3.0 | 2.6 |  |  |  |  |  |  | 
4 | CC(C)CN(C[C@@H](O)[C@H](Cc1ccccc1)NC(=O)OCc1cncs1)S(=O)(=O)c1ccc2nc(N(C)C(=O)c3ccnc(Cl)c3)oc2c1 [Compound 29] | <4 | 1.4 | 0.87 | 0.79 | 39 | 4.9 | 8.1 |  |  |  |  |  |  | 
5 | COC(=O)Nc1nc2ccc(S(=O)(=O)N(CC(C)C)C[C@@H](O)[C@H](Cc3ccccc3)NC(=O)OCc3cncs3)cc2o1 [Compound 9] | <4 | 1.2 | 3.6 | 1.2 | 14.5 | 2.7 | 3.5 |  |  |  |  |  |  | 
6 | CC(C)CN(C[C@@H](O)[C@H](Cc1ccccc1)NC(=O)O[C@H]1CO[C@H]2OCC[C@H]21)S(=O)(=O)c1ccc2nc(NCCN(C)C)oc2c1 [Compound 2] | <4 | 0.49 | 0.36 | 0.59 | 2.7 | 0.32 | 1.1 |  |  |  |  |  |  | 
7 | CC(C)CN(C[C@@H](O)[C@H](Cc1ccccc1)NC(=O)OCc1cncs1)S(=O)(=O)c1ccc2nc(N(C)C(=O)C3CCN(C)CC3)oc2c1 [Compound 28] | <4 | 0.89 | 1.9 | 0.51 | 23 | 2.9 | 4.4 |  |  |  |  |  |  | 
8 | CC(=O)Nc1nc2ccc(S(=O)(=O)N(CC(C)C)C[C@@H](O)[C@H](Cc3ccccc3)NC(=O)O[C@H]3CO[C@H]4OCC[C@H]43)cc2o1 [Compound 1] | <4 | 0.80 | 0.40 | 0.50 | 0.71 | 0.72 | 0.63 | 25 | 1 | 15 | 6 |  |  | 
9 | CC(C)CN(C[C@@H](O)[C@H](Cc1ccccc1)NC(=O)OCc1cncs1)S(=O)(=O)c1ccc2nc(NC(=O)c3ccco3)oc2c1 [Compound 14] | 5.03 | 3.8 | 3.1 | 3.1 | 19 | 3.7 | 5.2 |  |  |  |  |  |  | 
10 | CC(C)CN(C[C@@H](O)[C@H](Cc1ccccc1)NC(=O)OCc1cncs1)S(=O)(=O)c1ccc2nc(NC(=O)c3ccncc3)oc2c1 [Compound 10] |  | 10.83 | 1.3 | 1.1 | 20 | 3.9 | 3.9 |  |  |  |  | 53.7 |  | 
11 | CC(C)CN(C[C@@H](O)[C@H](Cc1ccccc1)NC(=O)OCc1cncs1)S(=O)(=O)c1ccc2nc(N(C)C(=O)C3CCCN(C)C3)oc2c1 (stereo partly shown) [Compound 27] | <4 | 1.00 | 0.85 | 0.68 | 24 | 2.9 | 4.4 |  |  |  |  |  |  | 
12 | CC(=O)Nc1nc2ccc(S(=O)(=O)N(CC(C)C)C[C@@H](O)[C@H](Cc3ccccc3)NC(=O)OCc3cncs3)cc2o1 [Compound 11] | <4 | 2.1 | 4.8 | 2.5 | 74 | 10 | 42 |  |  |  |  |  |  | 
13 | CC(C)CN(C[C@@H](O)[C@H](Cc1ccccc1)NC(=O)O[C@H]1CO[C@H]2OCC[C@H]21)S(=O)(=O)c1ccc2nc(NCCN3CCCC3)oc2c1 [Compound 4] |  | 1.62 | 0.50 | 1.70 | 3.2 | 0.47 | 1.95 |  |  |  |  |  | 1098 | 553
14 | CC(C)CN(C[C@@H](O)[C@H](Cc1ccccc1)NC(=O)OCc1cncs1)S(=O)(=O)c1ccc2nc(NC(=O)CN3CCN(C)CC3)oc2c1 [Compound 25] | 4.31 | 1.3 | 3.9 | 3.0 | 18 | 3.9 | 3.9 |  |  |  |  |  |  | 

Reference: US7595334B2, “Broadspectrum 2-(substituted-amino)-benzoxazole sulfonamide HIV protease inhibitors” (Tibotec Pharmaceuticals Ltd., priority 2001, dated 2009)
